Test: Safety and tolerability (adverse events), Study 1 SAD in healthy participants
Format: in vivo, human
[1] = Study 1 SAD group, BMS-986142-treated
[2] = Study 1 SAD, all BMS-986142 doses, n = 36

## Cc1c(-c2c(F)cc(C(N)=O)c3[nH]c4c(c23)CC[C@H](C(C)(C)O)C4)cccc1-n1c(=O)c2cccc(F)c2n(C)c1=O [BMS-986142, 6-fluoro-5-(R)-(3-(S)-(8-fluoro-1-methyl-2,4-dioxo-1,2-dihydroquinazolin-3(4H)-yl)-2-methylphenyl)-2-(S)-(2-hydroxypropan-2-yl)-2,3,4,9-tetrahydro-1H-carbazole-8-carboxamide]
SAD 5 mg, n = 6
  AE SOC: Gastrointestinal Disorders: 0 n (%)
  AE SOC: General disorders and administration site conditions: 0 n (%)
  AE SOC: Infections and infestations: 0 n (%)
  AE SOC: Injury, poisoning and procedural complications: 0 n (%)
  AE SOC: Musculoskeletal and connective tissue disorders: 0 n (%)
  AE SOC: Nervous system disorders: 0 n (%)
  AE SOC: Renal and urinary disorders: 0 n (%)
  AE SOC: Respiratory, thoracic and mediastinal disorders: 0 n (%)
  AE: Aphthous stomatitis: 0 n (%)
  AE: Chest pain: 0 n (%)
  AE: Contusion: 0 n (%)
  AE: Cough: 0 n (%)
  AE: Diarrhoea: 0 n (%)
  AE: Dizziness: 0 n (%)
  AE: Headache: 0 n (%)
  AE: Lip Dry: 0 n (%)
  AE: Muscle spasms: 0 n (%)
  AE: Nausea: 0 n (%)
  AE: Paraesthesia: 0 n (%)
  AE: Polyuria: 0 n (%)
  AE: Syncope: 0 n (%)
  AE: Tension headache: 0 n (%)
  AE: Thermal burn: 0 n (%)
  AE: Toothache: 0 n (%)
  AE: Upper respiratory tract infection: 0 n (%)
  AE: Vomiting: 0 n (%)
  Total participants with an event: 0 n (%)
SAD 15 mg, n = 6
  AE SOC: Gastrointestinal Disorders: 1 (16.7) n (%)
  AE SOC: General disorders and administration site conditions: 0 n (%)
  AE SOC: Infections and infestations: 0 n (%)
  AE SOC: Injury, poisoning and procedural complications: 0 n (%)
  AE SOC: Musculoskeletal and connective tissue disorders: 0 n (%)
  AE SOC: Nervous system disorders: 0 n (%)
  AE SOC: Renal and urinary disorders: 0 n (%)
  AE SOC: Respiratory, thoracic and mediastinal disorders: 0 n (%)
  AE: Aphthous stomatitis: 1 (16.7) n (%)
  AE: Chest pain: 0 n (%)
  AE: Contusion: 0 n (%)
  AE: Cough: 0 n (%)
  AE: Diarrhoea: 0 n (%)
  AE: Dizziness: 0 n (%)
  AE: Headache: 0 n (%)
  AE: Lip Dry: 0 n (%)
  AE: Muscle spasms: 0 n (%)
  AE: Nausea: 0 n (%)
  AE: Paraesthesia: 0 n (%)
  AE: Polyuria: 0 n (%)
  AE: Syncope: 0 n (%)
  AE: Tension headache: 0 n (%)
  AE: Thermal burn: 0 n (%)
  AE: Toothache: 0 n (%)
  AE: Upper respiratory tract infection: 0 n (%)
  AE: Vomiting: 0 n (%)
  Total participants with an event: 1 (16.7) n (%)
SAD 50 mg, n = 6
  AE SOC: Gastrointestinal Disorders: 0 n (%)
  AE SOC: General disorders and administration site conditions: 0 n (%)
  AE SOC: Infections and infestations: 1 (16.7) n (%)
  AE SOC: Injury, poisoning and procedural complications: 1 (16.7) n (%)
  AE SOC: Musculoskeletal and connective tissue disorders: 1 (16.7) n (%)
  AE SOC: Nervous system disorders: 2 (33.3) n (%)
  AE SOC: Renal and urinary disorders: 0 n (%)
  AE SOC: Respiratory, thoracic and mediastinal disorders: 0 n (%)
  AE: Aphthous stomatitis: 0 n (%)
  AE: Chest pain: 0 n (%)
  AE: Contusion: 1 (16.7) n (%)
  AE: Cough: 0 n (%)
  AE: Diarrhoea: 0 n (%)
  AE: Dizziness: 0 n (%)
  AE: Headache: 2 (33.3) n (%)
  AE: Lip Dry: 0 n (%)
  AE: Muscle spasms: 1 (16.7) n (%)
  AE: Nausea: 0 n (%)
  AE: Paraesthesia: 0 n (%)
  AE: Polyuria: 0 n (%)
  AE: Syncope: 0 n (%)
  AE: Tension headache: 0 n (%)
  AE: Thermal burn: 1 (16.7) n (%)
  AE: Toothache: 0 n (%)
  AE: Upper respiratory tract infection: 1 (16.7) n (%)
  AE: Vomiting: 0 n (%)
  Total participants with an event: 2 (33.3) n (%)
SAD 100 mg, n = 6
  AE SOC: Gastrointestinal Disorders: 1 (16.7) n (%)
  AE SOC: General disorders and administration site conditions: 0 n (%)
  AE SOC: Infections and infestations: 0 n (%)
  AE SOC: Injury, poisoning and procedural complications: 0 n (%)
  AE SOC: Musculoskeletal and connective tissue disorders: 0 n (%)
  AE SOC: Nervous system disorders: 1 (16.7) n (%)
  AE SOC: Renal and urinary disorders: 1 (16.7) n (%)
  AE SOC: Respiratory, thoracic and mediastinal disorders: 0 n (%)
  AE: Aphthous stomatitis: 0 n (%)
  AE: Chest pain: 0 n (%)
  AE: Contusion: 0 n (%)
  AE: Cough: 0 n (%)
  AE: Diarrhoea: 0 n (%)
  AE: Dizziness: 0 n (%)
  AE: Headache: 0 n (%)
  AE: Lip Dry: 0 n (%)
  AE: Muscle spasms: 0 n (%)
  AE: Nausea: 0 n (%)
  AE: Paraesthesia: 0 n (%)
  AE: Polyuria: 1 (16.7) n (%)
  AE: Syncope: 0 n (%)
  AE: Tension headache: 1 (16.7) n (%)
  AE: Thermal burn: 0 n (%)
  AE: Toothache: 0 n (%)
  AE: Upper respiratory tract infection: 0 n (%)
  AE: Vomiting: 1 (16.7) n (%)
  Total participants with an event: 2 (33.3) n (%)
SAD 300 mg, n = 6
  AE SOC: Gastrointestinal Disorders: 1 (16.7) n (%)
  AE SOC: General disorders and administration site conditions: 0 n (%)
  AE SOC: Infections and infestations: 0 n (%)
  AE SOC: Injury, poisoning and procedural complications: 0 n (%)
  AE SOC: Musculoskeletal and connective tissue disorders: 0 n (%)
  AE SOC: Nervous system disorders: 0 n (%)
  AE SOC: Renal and urinary disorders: 0 n (%)
  AE SOC: Respiratory, thoracic and mediastinal disorders: 0 n (%)
  AE: Aphthous stomatitis: 0 n (%)
  AE: Chest pain: 0 n (%)
  AE: Contusion: 0 n (%)
  AE: Cough: 0 n (%)
  AE: Diarrhoea: 0 n (%)
  AE: Dizziness: 0 n (%)
  AE: Headache: 0 n (%)
  AE: Lip Dry: 1 (16.7) n (%)
  AE: Muscle spasms: 0 n (%)
  AE: Nausea: 0 n (%)
  AE: Paraesthesia: 0 n (%)
  AE: Polyuria: 0 n (%)
  AE: Syncope: 0 n (%)
  AE: Tension headache: 0 n (%)
  AE: Thermal burn: 0 n (%)
  AE: Toothache: 0 n (%)
  AE: Upper respiratory tract infection: 0 n (%)
  AE: Vomiting: 0 n (%)
  Total participants with an event: 1 (16.7) n (%)
SAD 900 mg, n = 6
  AE SOC: Gastrointestinal Disorders: 2 (33.3) n (%)
  AE SOC: General disorders and administration site conditions: 1 (16.7) n (%)
  AE SOC: Infections and infestations: 1 (16.7) n (%)
  AE SOC: Injury, poisoning and procedural complications: 0 n (%)
  AE SOC: Musculoskeletal and connective tissue disorders: 0 n (%)
  AE SOC: Nervous system disorders: 2 (33.3) n (%)
  AE SOC: Renal and urinary disorders: 0 n (%)
  AE SOC: Respiratory, thoracic and mediastinal disorders: 1 (16.7) n (%)
  AE: Aphthous stomatitis: 0 n (%)
  AE: Chest pain: 1 (16.7) n (%)
  AE: Contusion: 0 n (%)
  AE: Cough: 1 (16.7) n (%)
  AE: Diarrhoea: 1 (16.7) n (%)
  AE: Dizziness: 1 (16.7) n (%)
  AE: Headache: 2 (33.3) n (%)
  AE: Lip Dry: 0 n (%)
  AE: Muscle spasms: 0 n (%)
  AE: Nausea: 1 (16.7) n (%)
  AE: Paraesthesia: 1 (16.7) n (%)
  AE: Polyuria: 0 n (%)
  AE: Syncope: 0 n (%)
  AE: Tension headache: 0 n (%)
  AE: Thermal burn: 0 n (%)
  AE: Toothache: 0 n (%)
  AE: Upper respiratory tract infection: 1 (16.7) n (%)
  AE: Vomiting: 0 n (%)
  Total participants with an event: 2 (33.3) n (%)
SAD any dose, n = 36
  AE SOC: Gastrointestinal Disorders: 5 (13.9) n (%)
  AE SOC: General disorders and administration site conditions: 1 (2.8) n (%)
  AE SOC: Infections and infestations: 2 (5.6) n (%)
  AE SOC: Injury, poisoning and procedural complications: 1 (2.8) n (%)
  AE SOC: Musculoskeletal and connective tissue disorders: 1 (2.8) n (%)
  AE SOC: Nervous system disorders: 5 (13.9) n (%)
  AE SOC: Renal and urinary disorders: 1 (2.8) n (%)
  AE SOC: Respiratory, thoracic and mediastinal disorders: 1 (2.8) n (%)
  AE: Aphthous stomatitis: 1 (2.8) n (%)
  AE: Chest pain: 1 (2.8) n (%)
  AE: Contusion: 1 (2.8) n (%)
  AE: Cough: 1 (2.8) n (%)
  AE: Diarrhoea: 1 (2.8) n (%)
  AE: Dizziness: 1 (2.8) n (%)
  AE: Headache: 4 (11.1) n (%)
  AE: Lip Dry: 1 (2.8) n (%)
  AE: Muscle spasms: 1 (2.8) n (%)
  AE: Nausea: 1 (2.8) n (%)
  AE: Paraesthesia: 1 (2.8) n (%)
  AE: Polyuria: 1 (2.8) n (%)
  AE: Syncope: 0 n (%)
  AE: Tension headache: 1 (2.8) n (%)
  AE: Thermal burn: 1 (2.8) n (%)
  AE: Toothache: 0 n (%)
  AE: Upper respiratory tract infection: 2 (5.6) n (%)
  AE: Vomiting: 1 (2.8) n (%)
  Total participants with an event: 8 (22.2) n (%)
[1]
  Number of AEs reported: 22 AEs
  Participants with AEs: 8 participants
[2]
  AE: Cough: 1 (2.8) n (%)
  AE: Diarrhea: 1 (2.8) n (%)
  AE: Dizziness: 1 (2.8) n (%)
  AE: Headache/tension headache: 5 (13.9) n (%)
  AE: Nausea: 1 (2.8) n (%)
  AE: Thermal burns: 1 (2.8) n (%)
  AE: Upper respiratory tract infection: 2 (5.6) n (%)
  Subjects with AEs: 8 (22.2) n (%)
Healthy participants, alone and in combination with MTX (studies 1 and 2)
  Tolerability: generally well tolerated

From PMC5423977, “Safety, pharmacokinetics, and pharmacodynamics of BMS-986142, a novel reversible BTK inhibitor, in healthy participants” (European Journal of Clinical Pharmacology, 2017)
